The values that follow come from publication PMC2488398, “Concurrence of Danish Dementia and Cataract: Insights from the Interactions of Dementia Associated Peptides with Eye Lens α-Crystallin” (PLoS ONE, 2008).

This assay relates to rat lens. Nature of the assay: Lens protein content in peptide-treated rat lenses. In kind it is cell-based, Wistar rat. The following applies: 10 µM peptide, 96 h. On the procedure: Eyes were enucleated from 4 months old Wistar rats, obtained from National Center for Laboratory Animal Services, National Institute of Nutrition, Hyderabad immediately after sacrifice by cervical dislocation. Animal care and protocols were in accordance with and approved by Institutional Animal Ethics Committee. Lenses were dissected from the eyes by anterior approach. Each isolated lens was incubated in 2 ml of modified of TC-199 (Sigma) medium with antibiotics. Osmolarity of the medium was adjusted to 295 milli osmomoles using an osmometer (Micro Osmometer; Model-210, Fiske Associates, Norwood, MA, USA). Lenses were cultured as described previously, [33]. Lenses were incubated at 37°C under 95% air and 5% CO2 in the absence or presence of the various dementia associated peptides dissolved in DMSO for a period of 96 h. All the reagents/chemicals used for lens organ culture were filtered through 0.2 µm Millipore disc filters. Final concentration of a given dementia associated peptides in the culture medium was kept at 10 µM. Medium was changed every 24 h. At the end of incubation, lenses were kept on a grid (12/cm) for assessing the transparency by placing them above a light source.
Lenses were homogenized in 10 vol. of 0.05 M Tris buffer (pH 8.0), containing 0.1 M NaCl and 0.02% sodium azide. The homogenate was centrifuged at 15 000 g for 30 min at 4°C and the resulting supernatant was collected (soluble fraction). The pellet was washed thrice and constituted in the same buffer (insoluble fraction). Protein content in soluble and insoluble fractions was estimated by Lowry's method.

In the case of “Aβ (1–42): column label of Table 1; text gives the same value for Aβ-40”, the Insoluble protein (15 000 g pellet, Lowry's method, Control 95) stood at 145 mg/g lens. Also, the Soluble protein (15 000 g supernatant, Lowry's method, Control 421) was determined as 310 mg/g lens. The Total protein (Lowry's method, Control 518) worked out at 464 mg/g lens. The “% Soluble protein” value (in relation to the amount of total protein, Control 81) turned out to be 67%.
